Data as given in US4191760A, “Dibenzodiazepines” (Abbott Laboratories, priority 1978, dated 1980).

Experiments:
[1] = test system: Methamphetamine induced hyperactivity; assay: Antagonism of Methamphetamine induced hyperactivity in rats; assay type: in vivo, Male Long-Evans black hooded rats; settings: one hour prior to Methamphetamine 1 mg./kg. intraperitoneal; for ED50: Rattus norvegicus, oral, activity counts at one and two hour intervals, read with sign (+)/(-); for potentiation (+) or antagonism (-) of Methamphetamine: oral 5, 20 and 80 mg./kg., sign printed beside the oral ED50
Experimental: Effectiveness of Drug Compound on Inhibiting Methamphetamine Antagonism in Rats
Male Long-Evans black hooded rats, weighing between 100 and 150 grams, were administered the test drugs at oral doses of 5, 20 and 80 mg./kg. one hour prior to the administration of Methamphetamine at an intraperitoneal dose of 1 mg./kg. Three animals were tested at each dose level. […] Antagonism of Methamphetamine induced hyperactivity was recorded as digital counts received from the photocells at one and two hour intervals. Placebo controls received a volume dose of the 0.5 carboxymethylcellulose vehicle. The data were evaluated by a one-way analysis of variance computer program.
In the results, a (+) indicates a potentiation of Metamphetamine and a (-) is antagonism of Metamphetamine.

[2] = test system: brain homovanillic acid (HVA); assay: Effect of Drug Compounds on Brain Level of Homovanillic Acid (HVA); assay type: in vivo, male Long Evans rats; settings: brain HVA as ratio to control group (control 1.0); 0.15 mmoles/kg intraperitoneally; brains minus cerebella two or three hours later; ratios greater than 1.6 of practical significance
Experimental: Effect of Drug Compounds on Brain Level of Homovanillic Acid (HVA)
In testing for the effectiveness of the present drug compounds on the brain level of homovanillic acid (HVA), the drugs were administered intraperitoneally to male Long Evans rats (Simonsen) usually as aqueous solutions but in certain cases as suspensions in 0.5% methocel in 0.9% saline. The standard testing dose was 0.15 mmoles/kg body weight. The test and control groups consisted of 3-5 and 5 animals, respectively. The analyses were performed on brains (minus cerebella) removed two or three hours later. In the analyses, standard extraction and fluorimetric methods were used.

| Compound | ED50 [1] | potentiation (+) or antagonism (-) of Methamphetamine [1] | HVA Ratio [2] |
| --- | --- | --- | --- |
| Clc1ccc2c(c1)N=C(N1CCCN(CC3CC3)CC1)c1ccccc1N2 [XII, 8-Chloro-11-(4-cyclopropylmethyl-1-homopiperazine)-5H-dibenzo[b,e][1,4]diazepine] | 80 mg/kg | + | 0.9 |
| Clc1ccc2c(c1)N=C(N1CCN(C3CC3)CC1)c1ccccc1N2 [VII, 8-Chloro-11-(4-cyclopropyl-1-piperazinyl)-5H-dibenzo[b,e][1,4]diazepine] | 60 mg/kg | - | 1.1 |
| O=CN1CCCN(C2=Nc3cc(Cl)ccc3Nc3ccccc32)CC1 [XI, 8-Chloro-11-(4-formyl-1-homopiperazinyl)-5H-dibenzo[b,e][1,4]diazepine] | 80 mg/kg | + | 1.0 |
| Clc1ccc2c(c1)N=C(N1CCN(CC3CC3)CC1)c1ccccc1N2 [VI, 8-Chloro-11-(4-cyclopropylmethyl-piperazinyl)-5H-dibenzo[b,e][1,4]diazepine] | 80 mg/kg | + | 3.4 |
| CN1CCCN(C2=Nc3cc(Cl)ccc3Nc3ccccc32)CC1 [X, 8-Chloro-11-(4-methyl-1-homopiperazinyl)-5H-dibenzo[b,e][1,4]diazepine] | 9 mg/kg | + | 1.0 |
| C#CCN1CCN(C2=Nc3cc(Cl)ccc3Nc3ccccc32)CC1 [VIII, 8-Chloro-11-(4-propargyl-1-piperazinyl)-5H-dibenzo[b,e][1,4]diazepine] | 5 mg/kg | + | 0.9 |
| Clc1ccc2c(c1)N=C(N1CCCN(C3CC3)CC1)c1ccccc1N2 [IX, 8-Chloro-11-(4-cyclopropyl-1-homopiperazinyl)-5H-dibenzo[b,e][1,4]diazepine] | 5 mg/kg | + | 0.9 |
